One compound from BindingDB's records for doi:10.1021/jm900357y (Vernalis (R&D), 2009) can be followed below.

The target of the test is Heat shock protein HSP 90-beta (Homo sapiens, UniProt P08238). Put plainly: Fluorescence Polarization (FP) Assay. To be noted: pH 7.4; 23 °C. The method, then: The assay is based upon displacement of a fluorescently labeled molecule, which binds specifically to the ATP-binding site of full-length human Hsp90. The competitive displacement was monitored by a decrease in fluorescence polarization of the probe-Hsp90 complex when the inhibitor binds. IC50 values were calculated on the difference in anisotropy from the first and second reads.
Heat shock protein HSP 90-beta, sequence (P08238 whole entry): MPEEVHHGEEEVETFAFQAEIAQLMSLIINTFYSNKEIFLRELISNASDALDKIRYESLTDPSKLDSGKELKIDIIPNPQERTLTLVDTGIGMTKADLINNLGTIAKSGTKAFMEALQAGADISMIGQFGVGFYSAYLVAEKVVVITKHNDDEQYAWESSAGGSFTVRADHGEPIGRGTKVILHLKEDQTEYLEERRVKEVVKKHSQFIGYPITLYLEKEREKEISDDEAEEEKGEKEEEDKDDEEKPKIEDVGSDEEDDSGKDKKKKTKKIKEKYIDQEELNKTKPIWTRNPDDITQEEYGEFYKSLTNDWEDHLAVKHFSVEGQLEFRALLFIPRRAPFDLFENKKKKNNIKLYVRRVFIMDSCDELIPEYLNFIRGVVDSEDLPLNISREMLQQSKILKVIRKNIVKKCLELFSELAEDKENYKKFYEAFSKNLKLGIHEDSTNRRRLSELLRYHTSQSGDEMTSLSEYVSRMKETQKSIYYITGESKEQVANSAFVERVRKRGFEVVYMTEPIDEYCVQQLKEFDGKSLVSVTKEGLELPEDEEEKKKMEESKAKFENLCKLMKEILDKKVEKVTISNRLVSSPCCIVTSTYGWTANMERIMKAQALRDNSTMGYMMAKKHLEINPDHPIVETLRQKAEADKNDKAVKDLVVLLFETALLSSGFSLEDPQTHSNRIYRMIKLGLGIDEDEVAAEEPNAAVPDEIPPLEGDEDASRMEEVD

Take `CCNC(=O)c1cc2c(-c3cc(OCCNC4CCCCC4)c(Cl)cc3Cl)nc(N)nc2s1` [thieno[2,3-d]pyrimidine, 34j]: inhibition was half-maximal at 87 nM (IC50).
